A short description of data set [1]: Metabolic stability in dog liver microsomes (DLM). Format: in vitro ADME, beagle dogs. Particulars: for half-life at 1 μM / microsomal CLint at 1 μM: male, beagle, dog, pooled dog liver microsomes, pH 7.4, 1 μM compound, 0.50 mg protein/mL, NADPH. On the procedure:
(§1) DLM Stability. Pooled DLM from male beagle dogs (XenoTech D1000) were used. Microsomal incubations were carried out in multi-well plates. Liver microsomal incubation medium consisted of PBS (100 mM, pH 7.4), MgCl2 (1 mM), and NADPH (1 mM), with 0.50 mg of liver microsomal protein per mL. Control incubations were performed by replacing the NADPH-cofactor system with PBS. Test compounds (1 μM, final solvent concentration 1.0%) were incubated with microsomes at 37° C. with constant shaking. Six time points over 60 minutes were analyzed, with 60 μL aliquots of the reaction mixture being drawn at each time point. The reaction aliquots were stopped by adding 180 μL of cold (4° C.) acetonitrile containing 200 ng/mL tolbutamide and 200 ng/mL labetalol as internal standards (TS), followed by shaking for 10 minutes, and then protein sedimentation by centrifugation at 4,000 rpm for 20 minutes at 4° C. Supernatant samples (80 μL) were diluted with water (240 μL) and analyzed for parent compound remaining using a fit-for-purpose liquid chromatography-tandem mass spectrometry (LC-MS/MS) method.
(§2) Data Analysis. The elimination constant (kel), half-life (t1/2) and intrinsic clearance (Clint) were determined in a plot of […] versus time, using linear regression analysis.
(In general: Liver microsomes are a subcellular fraction often used to study metabolism.)

Data set [2] is described as follows: Metabolic stability in Gottingen minipig liver microsomes (MPLM). Format: in vitro ADME, Gottingen minipigs. The note with it: pooled minipig liver microsomes, pH 7.4, 1 μM compound, 0.50 mg protein/mL, NADPH. How it is done:
as §1, with “MPLM” for “DLM”, “Gottingen minipigs (Xenotech Z6000)” for “male beagle dogs (XenoTech D1000)”, “mM” for “mM,”, “(IS),” for “(TS),”
as §2

The nature of data set [3]: Comparative metabolism/PK of 2R and deuterated 7R in rats after oral administration. Format: in vivo, Sprague Dawley rats. The note with it: for concentration at 0.083 h / concentration at 0.25 h / concentration at 0.5 h / concentration at 1 h / concentration at 2 h / concentration at 4 h / half-life / Cmax / AUC(0-t): male, Sprague Dawley, rat, 10 mg/kg; for concentration at 0.083 h / concentration at 0.25 h / concentration at 0.5 h / concentration at 1 h / concentration at 2 h / concentration at 4 h: oral; for half-life / Cmax / AUC(0-t): po; for AUC(0-t): read-out: AUC0-last (plasma) (converted). On the procedure: Animals. Male Sprague Dawley rats were used in these studies. Animals were randomly assigned to treatment groups and were fasted for 4 h before dosing.
Drugs. Test compounds 2R and 7R were dissolved in a vehicle consisting of normal saline. They were then administered orally (po) at a dose of 10 mg/kg (calculated based on freebase), and at a volume of 5 mL/kg body weight.
Sample Collection and Bioanalysis. Blood samples (approximately 60 μL) were collected under light isoflurane anesthesia (Surgivet®) from the retro orbital plexus at 0.08, 0.25, 0.5, 1, 2, 4, 8, and 24 h (4 animals per time point). Immediately after blood collection, plasma was harvested by centrifugation at 4,000 rpm for 10 min at 4° C. and samples were stored at −70±10° C. until bioanalysis. Following blood collection, animals were immediately sacrificed, the abdominal vena-cava was cut open, and the whole body was perfused from the heart using 10 mL of normal saline, and brain samples were collected from all animals. After isolation, brain samples were rinsed three times in ice-cold normal saline (for 5-10 seconds/rinse using ˜5-10 mL normal saline in disposable petri dish for each rinse) and dried on blotting paper. Brain samples were homogenized using ice-cold phosphate-buffered saline (pH 7.4) Total homogenate volume was three times the tissue weight. All homogenates were stored at −70±10° C. until bioanalysis. For bioanalysis, 25 μL aliquots of plasma/brain study samples or spiked plasma/brain calibration standards were added to individual pre-labeled micro-centrifuge tubes followed by 100 μL of an internal standard solution (glipizide, 500 ng/mL in acetonitrile) except for blanks, where 100 μL of acetonitrile was added. Samples were vortexed for 5 minutes and then centrifuged for 10 minutes at 4,000 rpm at 4° C. Following centrifugation, 100 μL of each clear supernatant was transferred to a 96 well plate and analyzed with a fit-for-purpose LC-MS/MS method, with authentic samples of each analyte used for calibration and identification. Concentrations of parent compound (2R or 7R) and metabolite 1R were determined in all samples.
Data Analysis. Pharmacokinetic parameters were estimated using the non-compartmental analysis tool of Phoenix® WinNonlin software (Ver 8.0).

Setting [4] is: brain, rat brain after 10 mg/kg po of 2R or 7R, parent or metabolite 1R as labelled, read-out: t1/2 (brain).
Where [5] appears, read: plasma, rat plasma, 0.083 h after 10 mg/kg po of 2R or 7R, read-out: Mean plasma concentration.
[6] abbreviates: plasma, rat plasma, 0.25 h after 10 mg/kg po of 2R or 7R, read-out: Mean plasma concentration.
The mark [7] stands for this setting: plasma, rat plasma, 0.5 h after 10 mg/kg po of 2R or 7R, read-out: Mean plasma concentration.
Setting [8] is: plasma, rat plasma, 1 h after 10 mg/kg po of 2R or 7R, read-out: Mean plasma concentration.
Setting [9] is: plasma, rat plasma, 2 h after 10 mg/kg po of 2R or 7R, read-out: Mean plasma concentration.
The mark [10] stands for this setting: plasma, rat plasma, 4 h after 10 mg/kg po of 2R or 7R, read-out: Mean plasma concentration.
The mark [11] stands for this setting: plasma, rat plasma after 10 mg/kg po of 2R or 7R, parent or metabolite 1R as labelled.
[12] abbreviates: plasma, rat plasma after 10 mg/kg po of 2R or 7R, parent or metabolite 1R as labelled, read-out: t1/2 (plasma).
Setting [13] is: rat brain after 10 mg/kg po of 2R or 7R, parent or metabolite 1R as labelled, listed as 1R as metabolite of 2R.
[14] abbreviates: rat brain after 10 mg/kg po of 2R or 7R, parent or metabolite 1R as labelled, listed as 1R as metabolite of 7R.
[15] abbreviates: rat plasma after 10 mg/kg po of 2R or 7R, parent or metabolite 1R as labelled, listed as 1R as metabolite of 7R.
[16] abbreviates: rat brain after 10 mg/kg po of 2R or 7R, parent or metabolite 1R as labelled.

The record followed here is US20240300886A1, “ARYLCYCLOHEXYLAMINE DERIVATIVES AND THEIR USE IN THE TREATMENT OF PSYCHIATRIC DISORDERS” (GILGAMESH PHARMACEUTICALS, INC., priority 2021, published 2024).

Structures are written as SMILES. Like-named read-outs stand apart in the source and are kept apart here.

By microsomal CLint is commonly meant the rate of metabolic loss divided by the concentration. For orientation: Cmax means the peak of the concentration-time curve.

In data set [1], `CNC1(c2ccccc2Cl)CCCCC1=O` (racemic) [racemic ketamine, ketamine] came in with a half-life at 1 μM of 0.04 h and a microsomal CLint at 1 μM of 589 µL/min/mg. In data set [2], this compound showed a half-life at 1 μM of 0.107 h and a microsomal CLint at 1 μM of 218 µL/min/mg.
On to `N[C@@]1(c2ccc(F)cc2)CCCCC1=O` [Compound 1R, (R)-2-amino-2-(4-fluorophenyl)cyclohexan-1-one], for which the concentration at 0.083 h in data set [3] (brain, rat brain, 0.083 h after 10 mg/kg po of 2R or 7R, read-out: Mean brain concentration) is 56 ng/g; in data set [3] (setting [5]) it was 31 ng/mL. In addition, the concentration at 0.25 h in data set [3] (brain, rat brain, 0.25 h after 10 mg/kg po of 2R or 7R, read-out: Mean brain concentration) came out at 1470 ng/g; in data set [3] (setting [6]), 889 ng/mL. Also, the concentration at 0.5 h worked out at 3200 ng/g in data set [3] (brain, rat brain, 0.5 h after 10 mg/kg po of 2R or 7R, read-out: Mean brain concentration) and 1700 ng/mL in data set [3] (setting [7]). For the same compound, the concentration at 1 h in data set [3] (brain, rat brain, 1 h after 10 mg/kg po of 2R or 7R, read-out: Mean brain concentration) is 3500 ng/g; in data set [3] (setting [8]), 2110 ng/mL. Besides, the concentration at 2 h came out at 2670 ng/g in data set [3] (brain, rat brain, 2 h after 10 mg/kg po of 2R or 7R, read-out: Mean brain concentration) and 1410 ng/mL in data set [3] (setting [9]). For the same compound, the concentration at 4 h in data set [3] (brain, rat brain, 4 h after 10 mg/kg po of 2R or 7R, read-out: Mean brain concentration) amounted to 1610 ng/g; in data set [3] (setting [10]), 690 ng/mL. Besides, the half-life in data set [3] (setting [4]) was determined as 2.02 h; in data set [3] (setting [12]), 3.03 h. Besides, in data set [3] (setting [11]), the Cmax worked out at 2110 ng/mL. In addition, the AUC(0-t) in data set [3] (setting [11]) was 8630 ng·h/mL. Further, the results for the “AUC0-last (brain)” value in data set [3] (setting [13]) and in data set [3] (setting [14]) were 820350 ng·min/g and 912802 ng·min/g, respectively. In addition, the “Cmax (brain)” value is listed as 3502 ng/g in data set [3] (setting [13]) and 2335 ng/g in data set [3] (setting [14]). The “t1/2 (brain)” value in data set [3] (setting [14]) came to 3.08 h. The Mean brain concentration turned out to be 59 ng/g in data set [3] (rat brain, 0.083 h after 10 mg/kg po of 2R or 7R, listed as 1R as metabolite of 7R); 1233 ng/g in data set [3] (rat brain, 0.25 h after 10 mg/kg po of 2R or 7R, listed as 1R as metabolite of 7R); 1623 ng/g in data set [3] (rat brain, 0.5 h after 10 mg/kg po of 2R or 7R, listed as 1R as metabolite of 7R); 2075 ng/g in data set [3] (rat brain, 1 h after 10 mg/kg po of 2R or 7R, listed as 1R as metabolite of 7R); 2335 ng/g in data set [3] (rat brain, 2 h after 10 mg/kg po of 2R or 7R, listed as 1R as metabolite of 7R); 1176 ng/g in data set [3] (rat brain, 4 h after 10 mg/kg po of 2R or 7R, listed as 1R as metabolite of 7R). In addition, the “AUC0-last (plasma)” value in data set [3] (setting [15]) amounted to 503548 ng·min/mL. In addition, in data set [3] (setting [15]), the “Cmax (plasma)” value is 1564 ng/mL. In addition, the Mean plasma concentration in data set [3] (rat plasma, 0.083 h after 10 mg/kg po of 2R or 7R, listed as 1R as metabolite of 7R) turned out to be 16 ng/mL; in data set [3] (rat plasma, 0.25 h after 10 mg/kg po of 2R or 7R, listed as 1R as metabolite of 7R) it was 525 ng/mL; in data set [3] (rat plasma, 0.5 h after 10 mg/kg po of 2R or 7R, listed as 1R as metabolite of 7R), 960 ng/mL; in data set [3] (rat plasma, 1 h after 10 mg/kg po of 2R or 7R, listed as 1R as metabolite of 7R), 1360 ng/mL; in data set [3] (rat plasma, 2 h after 10 mg/kg po of 2R or 7R, listed as 1R as metabolite of 7R), 1564 ng/mL; in data set [3] (rat plasma, 4 h after 10 mg/kg po of 2R or 7R, listed as 1R as metabolite of 7R) it was 705 ng/mL.
As to `N[C@]1(c2ccc(F)cc2)CCCCC1=O` [Compound 1S, (S)-2-amino-2-(4-fluorophenyl)cyclohexan-1-one], the half-life at 1 μM in data set [1] and in data set [2] was > 2.42 h throughout. Also, the microsomal CLint at 1 μM in data set [1] and in data set [2] was < 9.6 µL/min/mg throughout.
On to `CN[C@@]1(c2ccc(F)cc2)CCCCC1=O` [Compound 2R, (R)-2-(4-fluorophenyl)-2(methylamino)cyclohexan-1-one], for which, in data set [1], the “stability in DLM (in words)” value is “substantially more stable”, the half-life at 1 μM amounted to 0.645 h and the intrinsic metabolic clearance (microsomal CLint) at 1 μM turned out to be 35.8 µL/min/mg. In data set [2], the half-life at 1 μM came out at 0.633 h and the microsomal CLint at 1 μM stood at 36.5 µL/min/mg. In addition, the half-life in data set [3] (setting [4]) was determined as 1.18 h. In addition, the concentration at 0.083 h in data set [3] (setting [5]) worked out at 37 ng/mL. Further, in data set [3] (setting [6]), the concentration at 0.25 h came out at 760 ng/mL. Besides, the concentration at 0.5 h in data set [3] (setting [7]) turned out to be 850 ng/mL. Moreover, the concentration at 1 h in data set [3] (setting [8]) amounted to 497 ng/mL. Moreover, the concentration at 2 h in data set [3] (setting [9]) came out at 142 ng/mL. In addition, the concentration at 4 h in data set [3] (setting [10]) came to 42 ng/mL. In data set [3] (setting [11]), the highest concentration (Cmax) stood at 850 ng/mL and the AUC(0-t) was 1200 ng·h/mL. Further, the half-life in data set [3] (setting [12]) is 1.17 h. In addition, in data set [3] (setting [16]), the “AUC0-last (brain)” value was determined as 227268 ng·min/g and the “Cmax (brain)” value is 2599 ng/g.
In data set [1], `N[C@]1(c2cccc(F)c2)CCCCC1=O` [Compound 3S] registered a half-life at 1 μM of 0.862 h and an intrinsic metabolic clearance (microsomal CLint) at 1 μM of 26.8 µL/min/mg. In addition, in data set [2], the half-life at 1 μM is > 2.42 h and the microsomal CLint at 1 μM was < 9.6 µL/min/mg.
